{"source": "patent US7919531B2", "about": "“3,5-dihydroxy-2,4-cyclohexadienones and their derivatives, dietary compositions and fortified food containing them and their uses” (DSM IP Assets B.V., priority 2006, dated 2011)", "key": {"[1]": {"target": "T1, human serotonin re-uptake transporter (hSERT) (Homo sapiens, UniProt P31645)", "T1 construct": "host or cells: HEK-293", "T1 sequence (P31645 whole entry)": "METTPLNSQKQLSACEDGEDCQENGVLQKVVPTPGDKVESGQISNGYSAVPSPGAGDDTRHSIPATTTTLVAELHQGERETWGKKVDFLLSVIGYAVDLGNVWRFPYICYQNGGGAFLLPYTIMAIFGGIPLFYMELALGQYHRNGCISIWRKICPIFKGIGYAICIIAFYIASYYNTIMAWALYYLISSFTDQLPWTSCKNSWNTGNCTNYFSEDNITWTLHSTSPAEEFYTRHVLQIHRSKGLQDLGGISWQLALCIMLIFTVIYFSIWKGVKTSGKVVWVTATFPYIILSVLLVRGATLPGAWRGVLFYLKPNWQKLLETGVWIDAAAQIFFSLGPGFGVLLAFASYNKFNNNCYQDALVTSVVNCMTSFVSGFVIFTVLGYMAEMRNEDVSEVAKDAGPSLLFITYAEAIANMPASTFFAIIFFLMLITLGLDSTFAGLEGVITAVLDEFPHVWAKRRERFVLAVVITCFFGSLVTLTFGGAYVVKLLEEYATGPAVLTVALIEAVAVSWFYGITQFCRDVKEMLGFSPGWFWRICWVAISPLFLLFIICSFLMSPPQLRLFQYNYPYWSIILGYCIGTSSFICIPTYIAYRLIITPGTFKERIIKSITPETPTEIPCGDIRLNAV", "assay": "Serotonin uptake inhibition in HEK-293 cells expressing hSERT", "assay_type": "cell-based", "settings": "for Effect on serotonin re-uptake (hSERT dependent uptake of tritiated serotonin into transfected cells): result in words; for pKi: transfected HEK-293 cells, Ki from measured IC50 by Cheng-Prusoff, average +/− s.e.m. of two experiments, read-out: Inhibition constant Ki for tritiated serotonin uptake", "excerpt": "HEK-293 cells stably expressing the human serotonin re-uptake transporter (hSERT) were obtained from R. Blakely, Vanderbilt University, USA. The cells were routinely grown in Dulbeco's Modified Eagles Medium (Bioconcept) containing 10% fetal calf serum, penicillin, streptomycin, L-glutamine and the antibiotic G418 and passaged by trypsinisation. On the day of assay, cells from 80% confluent flasks were harvested by gentle washing with warm phosphate buffered saline (PBS). Cells were then washed once by centrifugation and re-suspended in Krebs Ringers bicarbonate buffer (Sigma) supplemented with 35 μM pargyline, 2.2 mM CaCl2, 1 mM ascorbic acid and 5 mM N-2-hydroxyethylpiperazine-N′-2-ethanesulfonic acid (buffer called “Hepes”) at a concentration of 10,000 cells in 160 ul of buffer, and aliquoted into round bottomed polypropylene 96 well microtitre plates (Corning) at 10,000 cells per well. Serotonin uptake into the cells was determined by addition of radio-labeled (3H) serotonin (GE Healthcare) to a concentration of 20 nM, and incubation for 40 minutes at 37° C. with gentle shaking. At the end of this time unincorporated label was removed by filtration though Unifilter 96 GF/B plates (Perkin Elmer) using a Tomtec Mach III M cell harvester. The incorporated serotonin retained on the plates was quantified by liquid scintillation counting using Microscint-40/Topcount (Perkin Elmer).\nThe effect of (−)-humulone and lupulone on the serotonin uptake was determined by their inclusion in the assay at a range of concentrations between 0.03 and 100 μM for 10 minutes prior to and during the addition of (3H) serotonin. Serotonin uptake via the transporter was inhibited by (−)-humulone and lupulone, respectively, in a dose dependent manner.\nThe calculated inhibition constants Ki, derived from the measured IC50 using the Cheng-Prusoff equation (Y. C. Cheng, W. H. Prusoff, Biochem. Pharmacol. 1973, 22, p. 3099-3108), for inhibition of serotonin uptake by (−)-humulone and lupulone are shown in Table 1."}, "mouse [2]": {"tested_on": "mouse", "assay": "Primary observation (Irwin) test in the mouse", "assay_type": "in vivo", "settings": "30 mg/kg i.p., 5 mice per group", "excerpt": "The method, which detects the first toxic dose, the active dose-range and the principal effects of a test substance on behaviour and physiological function, follows that described by Irwin (Irwin S. Comprehensive observational assessment: A systematic quantitative procedure for assessing the behavioural and physiologic state of the mouse. Psychopharmacologia, 1968, 13, 222-257).\n3 treated groups were compared with the same control at any one time. All animals within a treatment group were observed simultaneously.\nBehavioural modifications, physiological and neurotoxicity symptoms, pupil diameter and rectal temperature were recorded according to a standardized observation grid derived from that of Irwin. The grid contains the following items: lethality*, convulsions*, tremor*, Straub*, sedation, excitation, abnormal gait* (rolling, tip-toe), jumps*, motor incoordination*, writhes*, piloerection*, stereotypies* (sniffing, chewing, head movements), head twitches*, scratching*, respiration*, aggressiveness*, fear, reactivity to touch, muscle tone, loss of righting reflex, ptosis, exopthalmos, loss of grasping, akinesia, catalepsy, loss of traction, loss of corneal reflex, analgesia, defecation, salivation, lacrimation, pupil diameter (Unit=1/45 mm) and rectal temperature.\nObservations were performed 15, 30, 60, 120 and 180 minutes after administration of the test substance ((−)-humulone) and also 24 hours later. The symptoms marked (*) were observed continuously from 0 to 15 minutes after administration. 5 mice were studied per group.\n(−)-Humulone was solubilized in physiological saline and injected into mice intraperitoneally."}, "mouse [3]": {"tested_on": "mouse", "assay": "Marble burying test in the mouse", "assay_type": "in vivo", "settings": "for Number of marbles covered by sawdust, mean ± s.e.m.: vehicle 20.1 ± 1.7", "excerpt": "The method applied here follows that described by Broekkamp et al. (European Journal of Pharmacology 1986, 126, 223-229.). Mice (n=15 per treatment group) were individually placed in transparent plastic cages (33×21×18 cm) with 5 cm of sawdust on the floor and 25 marbles (diameter 1 cm) grouped in the centre of the cage. A second, up-turned, cage served as a lid. The number of marbles covered by sawdust (by at least two-thirds) was counted at the end of the 30-minute test period. Tests were performed by investigators blind to the drug treatment protocol.\nPrior to testing, all test cages and marbles were “impregnated” by leaving 10 naive mice in each cage for 15 minutes.\n(−)-Humulone was solubilized in physiological saline. The control substance fluoxetine (Prozac®) (Lilly), batches n^o A069667 and A058238) was dispersed in 0.2% hydroxypropylmethylcellulose (HPMC) in physiological saline.\n(−)-Humulone was evaluated at 3, 10 and 30 mg/kg, administered i.p. 30 minutes before the test, and compared with a vehicle control group. Fluoxetine (32 mg/kg), administered under the same experimental conditions, was used as a reference substance.\nData were analysed by comparing treated groups with vehicle control using unpaired Student's t-tests."}, "mouse [4]": {"tested_on": "mouse", "assay": "Light dark box test in the mouse after subchronic oral gavage", "assay_type": "in vivo", "settings": "for Number of crossings, mean ± sem / Time spent in light compartment, mean ± sem: 5 h and 1 h before test; for Number of crossings, mean ± sem: vehicle 6.5 ± 1.0; for Time spent in light compartment, mean ± sem: vehicle 64.4 ± 4.7; for Number of crossings, % change / Time spent in light compartment, % change: versus vehicle control", "excerpt": "The method, which detects anxiolytic activity, follows that described by Crawley (Pharmacol. Biochem. Behav. 1981, 15, 695-699). Anxiolytics increase the time spent in the light compartment.\nAnimals were placed into the light compartment of a 2-compartment box with one half light and open (25×27×27 cm) and the other half dark and closed (20×27×27 cm). The time spent in each compartment as well as the number of times the animal crosses from one side to the other is scored during a 3-minute test. 15 mice were studied per group. The test was performed blind. […]\nClobazam (32 mg/kg orally), administered 1 hour before the test, will be used as reference substance. Mice in this group received additional administrations of vehicle at 25 and 5 hours before the test in order to maintain experimental blinding."}, "[5]": {"settings": "50 mg/kg p.o., listed as (−)-Humulone"}}, "note": "pKi: −log10 of the molar value.", "data": [{"compound": "CC(C)=CCC1=C(O)C(C(=O)CC(C)C)=C(O)C(CC=C(C)C)(CC=C(C)C)C1=O", "note": "[Lupulone, lupulone]", "values": [{"measurement": "Effect on serotonin re-uptake (hSERT dependent uptake of tritiated serotonin into transfected cells)", "setting": "[1]", "result": "inhibited"}, {"measurement": "pKi", "setting": "[1]", "result": 5.22}]}, {"compound": "6-hydroxylupulone [compound 4, reference compound]", "values": [{"measurement": "Effect on serotonin re-uptake (hSERT dependent uptake of tritiated serotonin into transfected cells)", "setting": "[1]", "result": "no effect"}]}, {"compound": "CC(C)=CCC1C(=O)C(C(=O)CC(C)C)=C(O)C(O)(CC=C(C)C)C1=O", "note": "(single isomer, unassigned; (-)) [(−)-humulone]", "values": [{"measurement": "pKi", "setting": "[1]", "result": 4.77}, {"measurement": "Decreased fear, number of mice", "setting": "mouse [2]; at 30 minutes", "result": 3, "unit": "mice"}, {"measurement": "Decreased muscle tone, number of mice", "setting": "mouse [2]; at 30 minutes", "result": 4, "unit": "mice"}, {"measurement": "Decreased fear, number of mice", "setting": "mouse [2]; at 60 minutes", "result": 1, "unit": "mouse"}, {"measurement": "Decreased muscle tone, number of mice", "setting": "mouse [2]; at 60 minutes", "result": 1, "unit": "mouse"}, {"measurement": "Number of marbles covered by sawdust, % change from control", "setting": "mouse [3]; 3 mg/kg i.p. −30 min", "result": "−9", "unit": "%"}, {"measurement": "Number of marbles covered by sawdust, mean ± s.e.m.", "setting": "mouse [3]; 3 mg/kg i.p. −30 min", "result": "18.3 ± 1.7 (NS)"}, {"measurement": "Number of marbles covered by sawdust, % change from control", "setting": "mouse [3]; 10 mg/kg i.p. −30 min", "result": "−13", "unit": "%"}, {"measurement": "Number of marbles covered by sawdust, mean ± s.e.m.", "setting": "mouse [3]; 10 mg/kg i.p. −30 min", "result": "17.5 ± 2.0 (NS)"}, {"measurement": "Number of marbles covered by sawdust, % change from control", "setting": "mouse [3]; 30 mg/kg i.p. −30 min", "result": "−81", "unit": "%"}, {"measurement": "Number of marbles covered by sawdust, mean ± s.e.m.", "setting": "mouse [3]; 30 mg/kg i.p. −30 min", "result": "3.8 ± 1.5 (***)"}, {"measurement": "Number of crossings, mean ± sem", "setting": "mouse [4]; 50 mg/kg p.o. -24 h", "result": "13.7 ± 1.3"}, {"measurement": "Time spent in light compartment, mean ± sem", "setting": "mouse [4]; 50 mg/kg p.o. -24 h", "result": "95.4 ± 3.8", "unit": "s"}, {"measurement": "Number of crossings, % change", "setting": "mouse [4]; 50 mg/kg p.o.", "result": "+111%"}, {"measurement": "Time spent in light compartment, % change", "setting": "mouse [4]; 50 mg/kg p.o.", "result": "+48%"}, {"measurement": "Number of crossings, % change", "setting": "mouse [4]; [5]", "result": "+111%"}, {"measurement": "Time spent in light compartment, % change", "setting": "mouse [4]; [5]", "result": "+48%"}, {"measurement": "Number of crossings, mean ± sem", "setting": "mouse [4]; 100 mg/kg p.o. -24 h", "result": "7.9 ± 1.0"}, {"measurement": "Time spent in light compartment, mean ± sem", "setting": "mouse [4]; 100 mg/kg p.o. -24 h", "result": "86.4 ± 8.9", "unit": "s"}, {"measurement": "Number of crossings, % change", "setting": "mouse [4]; 100 mg/kg p.o.", "result": "+22%"}, {"measurement": "Time spent in light compartment, % change", "setting": "mouse [4]; 100 mg/kg p.o.", "result": "+34%"}, {"measurement": "Time spent in light compartment, % change", "setting": "mouse [4]; 100 mg/kg p.o., listed as (−)-Humulone", "result": "+34%"}, {"measurement": "Number of crossings, mean ± sem", "setting": "mouse [4]; 200 mg/kg p.o. -24 h", "result": "8.3 ± 1.2"}, {"measurement": "Time spent in light compartment, mean ± sem", "setting": "mouse [4]; 200 mg/kg p.o. -24 h", "result": "71.5 ± 8.8", "unit": "s"}, {"measurement": "Number of crossings, % change", "setting": "mouse [4]; 200 mg/kg p.o.", "result": "+28%"}, {"measurement": "Time spent in light compartment, % change", "setting": "mouse [4]; 200 mg/kg p.o.", "result": "+11%"}, {"measurement": "Time spent in light compartment, % change", "setting": "mouse [4]; 200 mg/kg p.o., listed as (−)-Humulone", "result": "+11%"}]}, {"compound": "CC(C)=CCC(=O)C1(O)C(O)=C(C(=O)CC(C)C)C(=O)C1CC=C(C)C", "note": "(stereo not shown) [compound 3, isohumulone, reference compound]", "values": [{"measurement": "Effect on serotonin re-uptake (hSERT dependent uptake of tritiated serotonin into transfected cells)", "setting": "[1]", "result": "no effect"}]}, {"compound": "6-hydroxycolupulone [compound 5, reference compound]", "values": [{"measurement": "Effect on serotonin re-uptake (hSERT dependent uptake of tritiated serotonin into transfected cells)", "setting": "[1]", "result": "no effect"}]}, {"compound": "CNCCC(Oc1ccc(C(F)(F)F)cc1)c1ccccc1", "note": "(stereo not shown) [FLUOXETINE, fluoxetine, reference compound]", "values": [{"measurement": "Number of marbles covered by sawdust, % change from control", "setting": "mouse [3]; 32 mg/kg i.p. −30 min", "result": "−91", "unit": "%"}, {"measurement": "Number of marbles covered by sawdust, mean ± s.e.m.", "setting": "mouse [3]; 32 mg/kg i.p. −30 min", "result": "1.9 ± 1.0 (***)"}]}]}
